Source: the kinase profiling compilation of Christmann-Franck et al. (2016)

Assays:
Assay in all cases: radiometric filter-binding kinase assay, Kinase HotSpot
Settings in all cases: compound 0.5 µM; ATP 10 µM
ACVR1B (human) = ACVR1B (human) (UniProt P36896)
AKT3 (human) = AKT3 (human) (UniProt Q9Y243)
AURKC (human) = AURKC (human) (UniProt Q9UQB9)
AXL (human) = AXL (human) (UniProt P30530)
BTK (human) = BTK (human) (UniProt Q06187)
CAMK1D (human) = CAMK1D (human) (UniProt Q8IU85)
CAMK2A (human) = CAMK2A (human) (UniProt Q9UQM7)
CAMK2D (human) = CAMK2D (human) (UniProt Q13557)
CDK3 CCNE1 (human) = CDK3 CCNE1 (human) (UniProt Q00526+P24864)
CDK7 CCNH MNAT1 (human) = CDK7 CCNH MNAT1 (human) (UniProt P50613+P51948+P51946)
CSNK1D (human) = CSNK1D (human) (UniProt P48730)
DAPK1 (human) = DAPK1 (human) (UniProt P53355)
DAPK2 (human) = DAPK2 (human) (UniProt Q9UIK4)
DYRK3 (human) = DYRK3 (human) (UniProt O43781)
EPHA4 (human) = EPHA4 (human) (UniProt P54764)
FES (human) = FES (human) (UniProt P07332)
INSRR (human) = INSRR (human) (UniProt P14616)
LIMK1 (human) = LIMK1 (human) (UniProt P53667)
MAP3K2 (human) = MAP3K2 (human) (UniProt Q9Y2U5)
MAP3K5 (human) = MAP3K5 (human) (UniProt Q99683)
MAP3K7 TAB1 (human) = MAP3K7 TAB1 (human) (UniProt O43318+Q15750)
MAP3K9 (human) = MAP3K9 (human) (UniProt P80192)
MAP4K4 (human) = MAP4K4 (human) (UniProt O95819)
MAPK12 (human) = MAPK12 (human) (UniProt P53778)
NEK3 (human) = NEK3 (human) (UniProt P51956)
PASK (human) = PASK (human) (UniProt Q96RG2)
PDGFRB (human) = PDGFRB (human) (UniProt P09619)
PHKG1 (human) = PHKG1 (human) (UniProt Q16816)
PRKCD (human) = PRKCD (human) (UniProt Q05655)
PRKD2 (human) = PRKD2 (human) (UniProt Q9BZL6)
PRKG2 (human) = PRKG2 (human) (UniProt Q13237)
PTK2 (human) = PTK2 (human) (UniProt Q05397)
RIPK2 (human) = RIPK2 (human) (UniProt O43353)
RPS6KA2 KD1 KD2 (human) = RPS6KA2 KD1 KD2 (human) (UniProt Q15349)
RPS6KB1 (human) = RPS6KB1 (human) (UniProt P23443)
SRPK2 (human) = SRPK2 (human) (UniProt P78362)
STK16 (human) = STK16 (human) (UniProt O75716)
STK24 (human) = STK24 (human) (UniProt Q9Y6E0)
SYK (human) = SYK (human) (UniProt P43405)
TAOK1 (human) = TAOK1 (human) (UniProt Q7L7X3)
TGFBR2 (human) = TGFBR2 (human) (UniProt P37173)
VRK1 (human) = VRK1 (human) (UniProt Q99986)

Sequence of NEK3 (human) (P51956 whole entry, looked up): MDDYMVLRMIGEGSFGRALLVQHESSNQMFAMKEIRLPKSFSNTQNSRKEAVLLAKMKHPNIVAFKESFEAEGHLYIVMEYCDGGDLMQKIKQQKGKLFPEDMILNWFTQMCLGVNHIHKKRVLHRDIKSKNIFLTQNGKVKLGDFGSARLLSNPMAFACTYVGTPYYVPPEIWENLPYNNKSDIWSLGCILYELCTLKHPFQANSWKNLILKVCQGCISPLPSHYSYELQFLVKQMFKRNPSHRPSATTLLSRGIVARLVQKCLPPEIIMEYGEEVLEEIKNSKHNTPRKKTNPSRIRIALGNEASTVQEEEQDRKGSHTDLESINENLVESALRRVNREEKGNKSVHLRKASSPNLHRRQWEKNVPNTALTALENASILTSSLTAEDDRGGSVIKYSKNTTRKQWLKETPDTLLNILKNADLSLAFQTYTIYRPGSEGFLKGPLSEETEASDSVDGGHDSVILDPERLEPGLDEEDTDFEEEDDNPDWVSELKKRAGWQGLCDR
Sequence of TGFBR2 (human) (P37173 whole entry, looked up): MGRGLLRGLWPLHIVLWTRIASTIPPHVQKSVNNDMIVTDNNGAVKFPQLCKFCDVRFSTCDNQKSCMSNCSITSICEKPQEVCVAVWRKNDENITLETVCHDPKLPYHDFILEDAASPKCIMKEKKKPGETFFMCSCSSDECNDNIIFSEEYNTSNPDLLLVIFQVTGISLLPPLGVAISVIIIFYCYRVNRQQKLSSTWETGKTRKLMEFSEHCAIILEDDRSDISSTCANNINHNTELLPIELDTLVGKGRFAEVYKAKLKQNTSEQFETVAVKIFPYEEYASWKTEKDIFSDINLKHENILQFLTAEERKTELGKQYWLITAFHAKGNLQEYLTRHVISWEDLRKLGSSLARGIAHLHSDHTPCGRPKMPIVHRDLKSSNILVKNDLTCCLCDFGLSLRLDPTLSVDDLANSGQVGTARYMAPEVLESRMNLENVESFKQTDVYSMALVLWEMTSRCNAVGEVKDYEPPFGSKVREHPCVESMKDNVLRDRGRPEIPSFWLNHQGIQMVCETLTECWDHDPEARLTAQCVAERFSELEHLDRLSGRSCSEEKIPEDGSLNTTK
Sequence of AKT3 (human) (Q9Y243 whole entry, looked up): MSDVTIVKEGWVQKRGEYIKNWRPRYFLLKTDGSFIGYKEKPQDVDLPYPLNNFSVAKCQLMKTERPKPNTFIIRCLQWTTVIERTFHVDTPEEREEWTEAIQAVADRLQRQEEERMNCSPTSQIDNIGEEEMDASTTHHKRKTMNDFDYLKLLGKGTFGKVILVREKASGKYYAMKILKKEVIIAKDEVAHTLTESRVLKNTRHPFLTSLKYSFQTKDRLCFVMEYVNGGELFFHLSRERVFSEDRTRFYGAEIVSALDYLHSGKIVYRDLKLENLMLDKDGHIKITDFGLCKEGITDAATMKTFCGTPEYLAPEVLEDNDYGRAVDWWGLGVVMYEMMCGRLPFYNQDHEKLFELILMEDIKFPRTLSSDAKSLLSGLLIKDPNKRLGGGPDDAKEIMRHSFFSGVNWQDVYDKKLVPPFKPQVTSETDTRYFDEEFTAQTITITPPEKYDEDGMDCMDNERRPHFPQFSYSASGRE
Sequence of CDK3 CCNE1 (human) (P24864 whole entry, looked up): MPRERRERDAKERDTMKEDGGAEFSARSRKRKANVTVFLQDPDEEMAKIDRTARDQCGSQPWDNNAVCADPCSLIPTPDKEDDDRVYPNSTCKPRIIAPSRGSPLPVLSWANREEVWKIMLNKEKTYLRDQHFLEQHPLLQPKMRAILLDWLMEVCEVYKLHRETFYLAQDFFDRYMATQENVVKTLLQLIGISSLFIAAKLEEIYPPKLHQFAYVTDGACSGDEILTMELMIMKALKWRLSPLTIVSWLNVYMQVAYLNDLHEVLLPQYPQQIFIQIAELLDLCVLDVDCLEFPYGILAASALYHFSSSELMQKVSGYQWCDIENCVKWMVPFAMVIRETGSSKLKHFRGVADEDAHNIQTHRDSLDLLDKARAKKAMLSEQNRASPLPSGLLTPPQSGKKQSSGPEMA
Sequence of CDK3 CCNE1 (human) (Q00526 whole entry, looked up): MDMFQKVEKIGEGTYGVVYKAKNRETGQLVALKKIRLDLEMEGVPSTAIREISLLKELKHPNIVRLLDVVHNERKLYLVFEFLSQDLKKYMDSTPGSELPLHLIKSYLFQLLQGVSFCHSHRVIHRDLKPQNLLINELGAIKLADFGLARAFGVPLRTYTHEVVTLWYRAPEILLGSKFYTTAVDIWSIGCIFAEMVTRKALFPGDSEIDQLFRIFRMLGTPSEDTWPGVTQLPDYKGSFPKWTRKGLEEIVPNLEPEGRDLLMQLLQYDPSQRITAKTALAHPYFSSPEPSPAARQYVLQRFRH
Sequence of CSNK1D (human) (P48730 whole entry, looked up): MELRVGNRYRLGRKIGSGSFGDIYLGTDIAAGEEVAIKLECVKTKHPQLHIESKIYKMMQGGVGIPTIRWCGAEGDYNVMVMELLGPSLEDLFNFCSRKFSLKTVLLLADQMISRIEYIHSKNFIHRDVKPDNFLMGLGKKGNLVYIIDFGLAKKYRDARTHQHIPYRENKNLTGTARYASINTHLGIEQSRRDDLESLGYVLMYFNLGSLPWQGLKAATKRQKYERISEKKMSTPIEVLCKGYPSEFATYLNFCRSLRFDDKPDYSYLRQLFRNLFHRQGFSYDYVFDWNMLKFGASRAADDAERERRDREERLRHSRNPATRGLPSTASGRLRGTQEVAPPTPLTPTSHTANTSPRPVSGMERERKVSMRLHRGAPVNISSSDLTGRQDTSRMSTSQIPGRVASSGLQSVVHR
Sequence of PRKG2 (human) (Q13237 whole entry, looked up): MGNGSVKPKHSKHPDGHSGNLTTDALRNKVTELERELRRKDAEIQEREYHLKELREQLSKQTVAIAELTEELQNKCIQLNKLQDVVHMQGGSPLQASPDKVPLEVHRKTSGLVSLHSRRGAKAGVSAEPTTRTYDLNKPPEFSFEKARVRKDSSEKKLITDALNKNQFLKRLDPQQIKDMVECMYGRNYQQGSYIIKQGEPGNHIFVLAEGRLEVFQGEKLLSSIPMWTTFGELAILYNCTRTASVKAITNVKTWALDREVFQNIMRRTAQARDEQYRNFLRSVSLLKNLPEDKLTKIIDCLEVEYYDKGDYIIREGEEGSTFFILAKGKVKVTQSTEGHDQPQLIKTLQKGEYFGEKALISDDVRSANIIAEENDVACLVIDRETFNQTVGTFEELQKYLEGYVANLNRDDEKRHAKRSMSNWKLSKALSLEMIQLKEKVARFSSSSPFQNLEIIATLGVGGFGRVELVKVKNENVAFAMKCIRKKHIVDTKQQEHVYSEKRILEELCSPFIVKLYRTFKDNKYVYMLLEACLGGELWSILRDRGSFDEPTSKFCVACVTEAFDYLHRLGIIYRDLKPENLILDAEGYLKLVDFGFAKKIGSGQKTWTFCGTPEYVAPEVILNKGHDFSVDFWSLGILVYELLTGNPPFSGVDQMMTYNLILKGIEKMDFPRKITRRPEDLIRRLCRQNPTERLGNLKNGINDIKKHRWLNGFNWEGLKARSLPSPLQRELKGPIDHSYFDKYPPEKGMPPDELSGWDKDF
Sequence of PRKCD (human) (Q05655 whole entry, looked up): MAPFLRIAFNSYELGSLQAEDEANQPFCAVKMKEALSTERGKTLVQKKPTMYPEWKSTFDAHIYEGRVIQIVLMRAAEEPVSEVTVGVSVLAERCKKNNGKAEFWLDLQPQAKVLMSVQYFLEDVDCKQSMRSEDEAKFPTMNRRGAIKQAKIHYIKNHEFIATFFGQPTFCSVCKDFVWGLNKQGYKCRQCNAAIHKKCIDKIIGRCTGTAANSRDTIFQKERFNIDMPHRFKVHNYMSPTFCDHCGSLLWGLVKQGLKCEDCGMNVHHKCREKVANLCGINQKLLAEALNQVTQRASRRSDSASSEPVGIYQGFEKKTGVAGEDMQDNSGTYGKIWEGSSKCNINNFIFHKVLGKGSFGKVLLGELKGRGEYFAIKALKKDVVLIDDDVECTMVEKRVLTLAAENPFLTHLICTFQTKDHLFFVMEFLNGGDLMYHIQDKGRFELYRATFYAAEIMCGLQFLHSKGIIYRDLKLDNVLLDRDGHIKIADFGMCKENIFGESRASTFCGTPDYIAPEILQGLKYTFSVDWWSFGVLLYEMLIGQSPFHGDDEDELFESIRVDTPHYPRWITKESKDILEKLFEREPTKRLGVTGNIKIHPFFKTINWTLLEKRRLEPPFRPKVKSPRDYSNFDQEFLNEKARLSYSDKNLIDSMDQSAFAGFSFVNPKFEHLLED
Sequence of RPS6KA2 KD1 KD2 (human) (Q15349 whole entry, looked up): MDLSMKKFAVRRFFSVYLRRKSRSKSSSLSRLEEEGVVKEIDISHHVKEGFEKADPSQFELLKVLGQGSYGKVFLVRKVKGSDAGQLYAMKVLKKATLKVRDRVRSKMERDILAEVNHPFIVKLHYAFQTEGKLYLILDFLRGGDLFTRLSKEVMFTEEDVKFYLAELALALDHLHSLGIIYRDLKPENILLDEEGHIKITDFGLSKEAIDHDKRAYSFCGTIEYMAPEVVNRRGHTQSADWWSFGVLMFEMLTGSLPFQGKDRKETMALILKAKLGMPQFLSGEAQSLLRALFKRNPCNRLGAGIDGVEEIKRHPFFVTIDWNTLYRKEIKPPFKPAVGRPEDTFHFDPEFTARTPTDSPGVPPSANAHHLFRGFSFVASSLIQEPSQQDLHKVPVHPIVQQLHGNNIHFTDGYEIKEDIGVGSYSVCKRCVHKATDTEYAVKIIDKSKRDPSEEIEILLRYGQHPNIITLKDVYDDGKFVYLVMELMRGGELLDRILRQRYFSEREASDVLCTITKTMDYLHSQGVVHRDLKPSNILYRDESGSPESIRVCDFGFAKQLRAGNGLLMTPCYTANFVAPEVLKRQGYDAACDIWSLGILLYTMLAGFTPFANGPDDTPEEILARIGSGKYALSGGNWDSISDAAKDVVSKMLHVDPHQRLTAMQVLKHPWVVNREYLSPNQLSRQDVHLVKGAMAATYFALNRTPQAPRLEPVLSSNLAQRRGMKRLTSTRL

In the case of O=C(Nc1cccc(Nc2cc(Nc3cccc(C(F)(F)F)c3)ncn2)c1)C1CC1, the residual activity (ACVR1B (human)) was 101%, the residual activity (AKT3 (human)) was 99.4% and the residual activity (AURKC (human)) was 104%. For the same compound, the residual activity (AXL (human)) was 98.7%, the residual activity (BTK (human)) was 101% and the residual activity (CAMK1D (human)) was 100%. The residual activity (CAMK2A (human)) was 104%, the residual activity (CAMK2D (human)) was 101% and the residual activity (CDK3 CCNE1 (human)) was 94.8%. It also gave a residual activity (CDK7 CCNH MNAT1 (human)) of 97.6%, a residual activity (CSNK1D (human)) of 98.9% and a residual activity (DAPK1 (human)) of 94.7%. It also gave a residual activity (DAPK2 (human)) of 99%, a residual activity (DYRK3 (human)) of 101% and a residual activity (EPHA4 (human)) of 96.5%. It also gave a residual activity (FES (human)) of 101%, a residual activity (INSRR (human)) of 101% and a residual activity (LIMK1 (human)) of 95.9%. The residual activity (MAP3K2 (human)) was 91.8%, the residual activity (MAP3K5 (human)) was 104% and the residual activity (MAP3K7 TAB1 (human)) was 99.3%. It also gave a residual activity (MAP3K9 (human)) of 107%, a residual activity (MAP4K4 (human)) of 102% and a residual activity (MAPK12 (human)) of 89.2%. It also gave a residual activity (NEK3 (human)) of 94.4%, a residual activity (PASK (human)) of 98.3% and a residual activity (PDGFRB (human)) of 101%. The residual activity (PHKG1 (human)) was 100%, the residual activity (PRKCD (human)) was 101% and the residual activity (PRKD2 (human)) was 103%. For the same compound, the residual activity (PRKG2 (human)) was 103%, the residual activity (PTK2 (human)) was 105% and the residual activity (RIPK2 (human)) was 80.8%. It also gave a residual activity (RPS6KA2 KD1 KD2 (human)) of 102%, a residual activity (RPS6KB1 (human)) of 98% and a residual activity (SRPK2 (human)) of 92%. For the same compound, the residual activity (STK16 (human)) was 107%, the residual activity (STK24 (human)) was 97.1% and the residual activity (SYK (human)) was 94.9%. For the same compound, the residual activity (TAOK1 (human)) was 100%, the residual activity (TGFBR2 (human)) was 105% and the residual activity (VRK1 (human)) was 94%.

With CCn1cnc2c(Nc3cccc(Cl)c3)nc(N[C@@H]3CCCC[C@@H]3N)nc21 the residual activity (ACVR1B (human)) was 110%, the residual activity (AKT3 (human)) was 95.8% and the residual activity (AURKC (human)) was 94.5%. The residual activity (AXL (human)) was 98.7%, the residual activity (BTK (human)) was 82.5% and the residual activity (CAMK1D (human)) was 96.7%. The residual activity (CAMK2A (human)) was 96.5%, the residual activity (CAMK2D (human)) was 89% and the residual activity (CDK3 CCNE1 (human)) was 49.7%. The residual activity (CDK7 CCNH MNAT1 (human)) was 58.4%, the residual activity (CSNK1D (human)) was 97.8% and the residual activity (DAPK1 (human)) was 79.1%. For the same compound, the residual activity (DAPK2 (human)) was 99%, the residual activity (DYRK3 (human)) was 83.7% and the residual activity (EPHA4 (human)) was 78.5%. It also gave a residual activity (FES (human)) of 83.5%, a residual activity (INSRR (human)) of 90.7% and a residual activity (LIMK1 (human)) of 108%. The residual activity (MAP3K2 (human)) was 91.7%, the residual activity (MAP3K5 (human)) was 103% and the residual activity (MAP3K7 TAB1 (human)) was 98.9%. The residual activity (MAP3K9 (human)) was 54.9%, the residual activity (MAP4K4 (human)) was 72.5% and the residual activity (MAPK12 (human)) was 96.6%. It also gave a residual activity (NEK3 (human)) of 100%, a residual activity (PASK (human)) of 88% and a residual activity (PDGFRB (human)) of 99.6%. It also gave a residual activity (PHKG1 (human)) of 62.8%, a residual activity (PRKCD (human)) of 91.2% and a residual activity (PRKG2 (human)) of 74.3%. It also gave a residual activity (PTK2 (human)) of 83.1%, a residual activity (RIPK2 (human)) of 70% and a residual activity (RPS6KA2 KD1 KD2 (human)) of 45.1%. It also gave a residual activity (RPS6KB1 (human)) of 97.3%, a residual activity (SRPK2 (human)) of 80.7% and a residual activity (STK16 (human)) of 101%. The residual activity (STK24 (human)) was 79%, the residual activity (SYK (human)) was 98.4% and the residual activity (TAOK1 (human)) was 90.2%. It also gave a residual activity (TGFBR2 (human)) of 91.2% and a residual activity (VRK1 (human)) of 103%.

Work on O=C1Nc2ccccc2/C1=C1\Nc2ccccc2\C1=N/O yielded a residual activity (ACVR1B (human)) of 102%, a residual activity (AKT3 (human)) of 98.8% and a residual activity (AURKC (human)) of 56.4%. For the same compound, the residual activity (AXL (human)) was 82.3%, the residual activity (BTK (human)) was 59.3% and the residual activity (CAMK1D (human)) was 92.3%. It also gave a residual activity (CAMK2A (human)) of 50.2%, a residual activity (CAMK2D (human)) of 60.4% and a residual activity (CDK3 CCNE1 (human)) of 52.3%. It also gave a residual activity (CDK7 CCNH MNAT1 (human)) of 89.9%, a residual activity (CSNK1D (human)) of 39.3% and a residual activity (DAPK1 (human)) of 83.2%. For the same compound, the residual activity (DAPK2 (human)) was 110%, the residual activity (DYRK3 (human)) was 106% and the residual activity (EPHA4 (human)) was 89.4%. It also gave a residual activity (FES (human)) of 92.4%, a residual activity (INSRR (human)) of 35.7% and a residual activity (LIMK1 (human)) of 65.9%. It also gave a residual activity (MAP3K2 (human)) of 94.6%, a residual activity (MAP3K5 (human)) of 84.3% and a residual activity (MAP3K9 (human)) of 19.1%. For the same compound, the residual activity (MAP4K4 (human)) was 42%, the residual activity (MAPK12 (human)) was 99.5% and the residual activity (NEK3 (human)) was 102%. The residual activity (PASK (human)) was 94.1%, the residual activity (PDGFRB (human)) was 72.6% and the residual activity (PHKG1 (human)) was 31.5%. For the same compound, the residual activity (PRKCD (human)) was 95%, the residual activity (PRKD2 (human)) was 89% and the residual activity (PRKG2 (human)) was 67.3%. For the same compound, the residual activity (PTK2 (human)) was 65.8%, the residual activity (RIPK2 (human)) was 72.3% and the residual activity (RPS6KA2 KD1 KD2 (human)) was 42.6%. The residual activity (RPS6KB1 (human)) was 75.9%, the residual activity (SRPK2 (human)) was 91.3% and the residual activity (STK16 (human)) was 54.8%. It also gave a residual activity (STK24 (human)) of 62.6%, a residual activity (SYK (human)) of 58.5% and a residual activity (TAOK1 (human)) of 102%. The residual activity (TGFBR2 (human)) was 113% and the residual activity (VRK1 (human)) was 86.3%.
